Experiment [1] relates to human hair follicle dermal papilla cells (HHFDPC). Put plainly: Proliferation of dermal papilla cells (MTT, absorbance at 540 nm). Format: cell-based. Conditions: peptide 500 nM, 72 hours, FIG. 1. Here is the method:
While culturing human hair follicle dermal dermal papilla cells (HHFDPC), the absorbance was measured after treatment with the peptide of the present invention to confirm whether there was an effect of promoting the proliferation of the HHFDPC dermal papilla cells.
Specifically, HHFDPC (Sciencell, USA) was seeded at 4λ10^3 cells/well in a 96-well culture plate, cultured in MSC complete medium (mesenchymal stem cell complete media, Sciencell, USA) for 24 hours, and then the medium was replaced with serum free MSC complete medium and cultured for another 24 hours. Then, the HHFDPC was treated with the peptide of SEQ ID NO: 1 prepared in the Preparation Example at concentrations of 500 nM, 5 μM, and 50 μM, respectively, and cultured at 37° C. for 72 hours. As a positive control, minoxidil was treated at a concentration of 1 μM, and as a negative control, HHFDPC without any treatment was used. Then, 10 μl of 5 mg/mL MTT solution was added and cultured in a 37° C. CO2 incubator for 4 hours to stain the cells. After removing the medium, the cells were treated with 100 μl of DMSO and shaken for 10 minutes, and the number of HHFDPC cells was confirmed by measuring absorbance at a wavelength of 540 nm using a spectrophotometer.

For experiment [2], the system named is FOXN1. Put plainly: RT-PCR of FOXN1 expression in HHGMC. Format: cell-based, human. Conditions: peptide 500 nM, 5 μM, 50 μM, 72 hours, FIG. 7. Here is the method:
(§1) Specifically, HHGMC (human hair germinal matrix cell, Sciencell, USA) was seeded in a 6-well culture plate at 4λ10^5 cells/well and then cultured in MSC complete medium (mesenchymal stem cell complete media) for 24 hours. Next, the medium was replaced with serum free MSC complete medium and cultured again for 24 hours. Then, the HHGMC was treated with the peptide of SEQ ID NO: 1 prepared in the Preparation Example at concentrations of 500 nM, 5 μM, and 50 μM, respectively, and cultured at 37° C. for 72 hours. As a positive control, EGF was treated at a concentration of 50 nM, and as a negative control, HHGMC without any treatment was used. After washing with PBS, RNA was isolated by treating with 300 μl of easy blue (intron, Korea). Next, cDNA was synthesized using a cDNA synthesis kit (enzynomics, Korea) by quantification using nano drop, and PCR was performed using primers for MSX2 and FOXN1 (base sequences of primer are listed in Table 4 below) and PCR premix (enzynomics, Korea). Electrophoresis was performed on a 1.5% agarose gel, and mRNA of MSX2 and FOXN1 was detected using a band analysis system (Bio-Rad gel image system).

The subject of experiment [3] is c-Myc. Put plainly: RT-PCR of c-Myc expression in HHFDPC. Format: cell-based, human. Particulars: peptide 500 nM, 5 μM, 50 μM, 24 hours, FIG. 4. Here is the method: (§2) Furthermore, in order to determine whether the β-catenin moves to the nucleus and is activated to affect cell proliferation and differentiation, whether the expression of LEF-1, c-Myc and cyclin D1 (cyclin D1), which act as downstream factors, increases with β-catenin activation was confirmed through RT-PCR. Specifically, in the same manner as the previous Western blotting experiment, HHFDPC cells were cultured, treated with the peptides of the Preparation Example of the present invention at concentrations of 500 nM, 5 μM, and 50 μM, respectively, and cultured at 37° C. for 24 hours. After washing the cells with PBS, RNA was isolated by treating them with 300 μl of easy blue (intron, Korea). Then, cDNA was synthesized using a cDNA synthesis kit (enzynomics, Korea) by quantifying it with nano drop, and PCR was performed using primers for LEF-1, c-Myc and cyclin D1 (base sequences of the primer are listed in Table 2 below) and PCR premix (enzynomics, Korea). Electrophoresis was performed on a 1.5% agarose gel, and then the mRNA of LEF-1, c-Myc and cyclin D1 was detected using a band analysis system (Bio-Rad gel image system).

In experiment [4] the test system is DKK-1 protein (dickkopf-related protein 1). Put plainly: Western blotting of DKK-1 protein in DHT-treated HHFDPC. Particulars: HHFDPC with DHT 100 nM, peptide 500 nM, 5 μM, 50 μM, 24 hours, FIG. 5. Format: cell-based, human. Here is the method: DKK-1 protein (dickkopf-related protein 1) is a hair loss-related protein known to be highly expressed in individuals with hair loss, especially male pattern hair loss, and its expression is known to be promoted by hormones such as DHT (Dihydrotestosterone). Accordingly, the expression of DKK-1 protein was induced by treating HHFDPC cells with DHT together with the peptide according to the Preparation Example of the present invention, and then the expression level of DKK-1 was measured through Western blotting to determine whether there was an effect of suppressing the expression of DKK-1 protein.
Specifically, HHFDPC as in [Experiment Example 1-1] was seeded in a 6-well culture plate at 4λ10^5 cells/well and then cultured in MSC complete medium (mesenchymal stem cell complete media) for 24 hours. Next, the medium was replaced with serum free MSC complete medium and cultured again for 24 hours. In addition, the HHFDPC was treated with the peptide of SEQ ID NO: 1 prepared in the Preparation Example at concentrations of 500 nM, 5 μM, and 50 μM, respectively, and at this time, DHT, an expression inducer of DKK-1 protein, was simultaneously treated at a concentration of 100 nM and then cultured at 37° C. for 24 hours. […] After washing again with 0.1% PBS-T (0.1% Tween-20 in PBS) three times for 15 minutes each, DKK-1 protein was detected by treatment with ECL solution (GE Healthcare, USA).
(In general: Immunoblotting shows a protein as a band on a membrane.)

Experiment [5] relates to p-ERK. Put plainly: Western blotting of phosphorylated ERK in HHFDPC. Format: cell-based, human. Conditions: peptide 500 nM, 5 μM, and 50 µM, 24 hours, FIG. 2. As to the method:
(§3) First, phosphorylated forms of AKT and ERK, which act as signaling molecules related to the proliferation of HHFDPC, were confirmed through Western blotting. Specifically, HHFDPC as in [Experiment Example 1-1] above was seeded at 4λ10^5 cells/well in a 6-well culture plate, cultured in MSC complete medium (mesenchymal stem cell complete media) for 24 hours, and then the medium was replaced with serum free MSC complete medium and cultured for another 24 hours. Then, the HHFDPC was treated with the peptide of SEQ ID NO: 1 prepared in the Preparation Example at concentrations of 500 nM, 5 μM, and 50 µM, respectively, and cultured at 37° C. for 24 hours. As a positive control, minoxidil was treated at a concentration of 1 μM, and as a negative control, HHFDPC without any treatment was used. Then, Western blotting was performed to detect phosphorylated AKT and phosphorylated ERK. After washing with PBS, the cells were treated with 100 μl of lysis buffer to destroy cells, thereby obtaining cell lysate. After electrophoresis using a 10% SDS-PAGE gel, it was transferred to a PVDF membrane and blocked using 5% skim milk at room temperature for 30 minutes. […] After washing again with 0.1% PBS-T (0.1% Tween-20 in PBS) three times for 15 minutes each, p-AKT and p-ERK were detected by treatment with ECL solution (GE Healthcare, USA).

The test system of experiment [6] is Keratin 14. The experiment in a line: RT-PCR of Keratin 14 expression in HHORSC. Format: cell-based, human. Particulars: peptide 500 nM, 5 μM, 50 μM, 72 hours, FIG. 6. As to the method:
(§4) Specifically, HHORSC (human hair outer root sheath cell, Sciencell, USA) was seeded in a 6-well culture plate at 4λ10^5 cells/well and then cultured in MSC complete medium (mesenchymal stem cell complete media) for 24 hours. Next, the medium was replaced with serum free MSC complete medium and cultured again for 24 hours. Then, the HHORSC was treated with the peptide of SEQ ID NO: […] in the Preparation Example at concentrations of 500 nM, 5 μM, and 50 μM, respectively, and cultured at 37° C. for 72 hours. As a positive control, EGF was treated at a concentration of 50 nM, and as a negative control, HHORSC without any treatment was used. After washing with PBS, RNA was isolated by treating with 300 μl of easy blue (intron, Korea). Then, cDNA was synthesized using a cDNA synthesis kit (enzynomics, Korea) by quantification using nano drop, and PCR was performed using primers for Ha3-II, Keratin 5, Keratin 14, and Keratin 19 (base sequences of primer are listed in Table 3 below) and PCR premix (enzynomics, Korea). Electrophoresis was performed on a 1.5% agarose gel, and the mRNAs of Ha3-II, Keratin 5, Keratin 14, and Keratin 19 were detected using a band analysis system (Bio-Rad gel image system).

The subject of experiment [7] is LEF-1. The experiment in a line: RT-PCR of LEF-1 expression in HHFDPC. Format: cell-based, human. Particulars: peptide 500 nM, 5 μM, 50 μM, 24 hours, FIG. 4. Here is the method:
as §2

For experiment [8], the system named is β-catenin. Put plainly: Western blotting of β-catenin moved into the nucleus of HHFDPC. Format: cell-based, human. Conditions: HHFDPC nuclear protein, peptide 500 nM, 5 µM, and 50 μM, 24 hours, FIG. 3. As to the method: In addition, in addition to p-AKT and p-ERK, in order to confirm the activation of β-catenin, which is known to affect cell proliferation and differentiation, whether β-catenin moved into the nucleus was confirmed through Western blotting. Specifically, the HHFDPC as in [Experiment Example 1-1] was seeded in a 6-well culture plate at an amount of 4λ10^5 cells/well, cultured in MSC complete medium (mesenchymal stem cell complete media) for 24 hours. Next, the medium was replaced with serum free MSC complete medium and cultured again for 24 hours. Then, the HHFDPC was treated with the peptide of SEQ ID NO: 1 prepared in the Preparation Example at concentrations of 500 nM, […], and 50 μM, respectively, and cultured at 37° C. for 24 hours. As a positive control, minoxidil was treated at a concentration of 1 μM, and as a negative control, HHFDPC without any treatment was used. After washing with PBS, proteins in the nucleus were isolated using a nuclear protein extraction kit (Thermo scientific, USA). After electrophoresis using a 10% SDS-PAGE gel, it was transferred to a PVDF membrane and blocked using 5% skim milk at room temperature for 30 minutes. […] After washing again with 0.1% PBS-T (0.1% Tween-20 in PBS) three times for 15 minutes each, β-catenin was detected by treatment with ECL solution (GE Healthcare, USA).

The test system of experiment [9] is Keratin 5. The experiment in a line: RT-PCR of Keratin 5 expression in HHORSC. Format: cell-based, human. Particulars: peptide 500 nM, 5 μM, 50 μM, 72 hours, FIG. 6. As to the method: as §4
Experiment [10] has as its system cyclin D1. The experiment in a line: RT-PCR of cyclin D1 expression in HHFDPC. Format: cell-based, human. Conditions: peptide 500 nM, 5 μM, 50 μM, 24 hours, FIG. 4. Here is the method:
as §2

Experiment [11] concerns MSX2. Put plainly: RT-PCR of MSX2 expression in HHGMC. Format: cell-based, human. Conditions: peptide 500 nM, 5 μM, 50 μM, 72 hours, FIG. 7. Here is the method: as §1
The subject of experiment [12] is Keratin 19. The experiment in a line: RT-PCR of Keratin 19 expression in HHORSC. Format: cell-based, human. Conditions: peptide 500 nM, 5 μM, 50 μM, 72 hours, FIG. 6. As to the method:
as §4

Experiment [13] relates to Ha3-II. Put plainly: RT-PCR of Ha3-II expression in HHORSC. Format: cell-based, human. Particulars: peptide 500 nM, 5 μM, 50 μM, 72 hours, FIG. 6. As to the method:
as §4

For experiment [14], the system named is p-AKT. Put plainly: Western blotting of phosphorylated AKT in HHFDPC. Format: cell-based, human. Particulars: peptide 500 nM, 5 μM, and 50 µM, 24 hours, FIG. 2. Here is the method:
as §3

From patent publication US20240390453A1, “PEPTIDE HAVING HAIR LOSS PREVENTION OR HAIR GROWTH PROMOTION ACTIVITY, AND USE THEREOF” (CAREGEN CO., LTD., priority 2021, published 2024) come the findings set out here.

As to “HLPKPI [peptide of the present invention]”, the “absorbance (number of HHFDPC cells, proliferation) compared to the untreated control group” value in experiment [1] (5 μM, 50 μM, MTT, 540 nm) was “higher”. Further, in experiment [1] (5 μM, and 50 μM vs minoxidil 1 μM), the “proliferation promotion effect compared to the positive control group” value is “better proliferation promotion effect than the positive control group”. Also, the “amount of FOXN1 mRNA compared to the untreated control group” value in [2] was “increased further”. For the same substance, in experiment [3], the “amount of c-Myc mRNA compared to the control group without any treatment” value is “increased further”. The “concentration dependence of the decrease of DHT-increased DKK-1 expression” value in [4] is “decreased again depending on the concentration”. Further, in experiment [4] (Western blotting), the “amount of DKK-1 protein compared to the negative control group (DHT only)” value was “reduced”. Besides, in experiment [5], the “phosphorylation of ERK (p-ERK) compared to the control group not treated with the peptide” value is “increased”. For the same substance, in experiment [6], the “amount of Keratin 14 mRNA compared to the control group without treatment” value is on record as “increased further”. In addition, the “amount of LEF-1 mRNA compared to the control group without any treatment” value in [7] is recorded as “increased further”. In addition, the “concentration dependence of β-catenin activation” value in experiment [8] is listed as “further promoted depending on the concentration”. In addition, the “migration of β-catenin to the nucleus due to activation, compared to the control group not treated with the peptide” value in [8] (Western blotting) is given as “increased”. The “amount of Keratin 5 mRNA compared to the control group without treatment” value in [9] was “increased further”. Moreover, the “amount of cyclin D1 mRNA compared to the control group without any treatment” value in [10] is listed as “increased further”. In addition, the “amount of MSX2 mRNA compared to the untreated control group” value in experiment [11] is “increased further”. For the same substance, the “amount of Keratin 19 mRNA compared to the control group without treatment” value in experiment [12] was “increased further”. In experiment [13], the “amount of Ha3-II mRNA compared to the control group without treatment” value is on record as “increased further”. In addition, the “phosphorylation of AKT (p-AKT) compared to the control group not treated with the peptide” value in experiment [14] is recorded as “increased”.
